Source: patent US8686113B2 (priority 2009, dated 2014)
Values after ≈ are worked out from the molar mass of the structure shown. Like-named read-outs stand apart in the source and are kept apart here. Non-standard residues stand in square brackets, D forms with d. Residues, ends and D or L forms follow the SMILES beside them. Hyp = O=C(O)[C@@H]1C[C@@H](O)CN1; Tle = CC(C)(C)[C@H](N)C(=O)O; Orn = NCCC[C@H](N)C(=O)O

What was measured:
[1] = tested on: Escherichia coli DSM 10233
Method: The minimum inhibitory concentrations (MIC) of the antimicrobial peptides and peptide derivatives were determined in microdilution assays. These used a continuous peptide dilution in sterile flat-bottomed 96-well microtiter plates (polystyrene, Greiner Bio-One GmbH, Frickenhausen, Germany) and a total volume of 100 μL per well. The aqueous peptide or peptidomimetic solutions were diluted with 1% TSB water, to obtain a final concentration of 256 μg/mL. 50 μL of the peptide or peptidomimetic solution was pipetted into the first well of each series and stirred. From this solution, 50 μL was transferred to the second well, stirred and again 50 μL was transferred to the next well, and so on. A double dilution series is obtained, beginning at 256 μg/mL in the first well to 125 ng/mL in the twelfth well. The bacteria, e.g. E. coli BL21 A1, were cultured overnight at 37° C. in nutrient broth (NB, Carl Roth GmbH+Co. KG, Karlsruhe, Germany). 50 μL of a 5×10^6 bacteria/mL suspension in 1% TSB was added to each well of the microtiter plate and thus a final concentration of the peptides or peptidomimetics from 128 μg/mL (well 1) to 62.5 ng/mL (well 12) was established in each series. The plates were incubated at 37° C. for 20 h and then the absorption was measured at 595 nm with a TECAN microtiter plate spectrophotometer (Tecan Trading AG, Mannedorf, Switzerland). The MIC values of all peptides and peptidomimetics were determined in triplicate. Sterile water was used as negative control.
The peptides shown in Table 8 were investigated for their MIC against pathogenic bacteria such as E. coli DSM 10233, K. pneumoniae DSM 681 and P. aeruginosa DSM 3227.

E. coli BL21 A1 = format: cell-based, Escherichia coli
Method in brief: (§1)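 Broth microdilution in 1% TSB with twofold peptide series, final 128 μg/mL to 62.5 ng/mL, against 5×10^6 bacteria/mL stock suspension added 1:1. Incubated 20 h at 37 °C, growth read by absorbance at 595 nm; MIC is the lowest concentration with no growth, determined in triplicate.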

[2] = mouse, serum
Method: For this, the peptides and peptidomimetics were dissolved in water, mouse serum was added and the peptide concentration was adjusted to 75 μg/mL. While shaking continuously, the mixture was incubated at 37° C. After 0, 30, 60, 120, 240 and 360 minutes, in each case an aliquot was taken and mixed with 15% aqueous trichloroacetic acid (Carl Roth GmbH & Co. KG; Karlsruhe, Germany). After incubation on ice for a further 10 minutes, the precipitated serum proteins were centrifuged off (5 min, 13400 rpm, MiniSpin, Eppendorf AG, Hamburg, Germany). The supernatant was removed, neutralized with 1 mol/L aqueous sodium hydroxide solution (Fluke Chemie GmbH, Buchs, Switzerland) and stored at −20° C. until analysis.
The supernatants were analyzed by RP-HPLC with a linear acetonitrile gradient (Biosolve BV, Valkenswaard, The Netherlands) in the presence of 0.1% trifluoroacetic acid (TFA, UV-grade, Fluka Chemie GmbH, Buchs, Switzerland) as ion-pairing reagent. The fractions were co-crystallized with α-cyanohydroxycinnamic acid (Bruker Daltonik GmbH; Bremen, Germany) as matrix (5.3 mg/mL in 50% acetonitrile in 0.1% aqueous TFA) and were analyzed with a tandem mass spectrometer (MALDI-TOF/TOF-MS, 4700 Proteomics Analyzer; Applied Biosystems GmbH, Weiterstadt, Germany) in the positive-ion reflector mode. The proportion of intact peptides and their degradation products or metabolites could thus be identified and quantified at the individual time points. The control used was 25% aqueous mouse serum, which was analyzed in parallel for the same time intervals.

M. luteus 10240 = assay: Growth inhibition assay (microdilution MIC); format: cell-based, Micrococcus luteus; settings: 10240, 20 h
Method in brief: as §1

[3] = Stability against bacterial proteases in E. coli lysate; format: in vitro ADME; settings: E. coli lysate with 0.5 mg/mL protein concentration, 37° C.
Method: For the bacterial lysate, 500 mL of nutrient broth (Carl Roth GmbH+Co. KG, Karlsruhe) was inoculated with E. coli BL21 A1 and incubated overnight at 37° C. 2×250 mL bacterial suspension were centrifuged for 25 min at 5000 rpm and 4° C. in a Beckman Avanti™ J-20-XP centrifuge with JLA-10.500 rotor (Beckman Coulter, Fullerton, U.S.A.). The pellets were each suspended in 30 mL PBS (pH 7.4) and centrifuged again in a Beckman Allegra™ 2IR centrifuge (Beckman Coulter, Fullerton, U.S.A.). The pellets were each suspended in 10 mL PBS and were disrupted with ultrasound (Vibra-cell™ microtip, Fisher Bioblock Scientific, Illkirch, France) 2×5 min (750 W; amplitude 40%; 2 s on/3 s off) on ice. The bacterial lysates were combined and 1 mL aliquots were centrifuged at 15400 rpm for 20 min at 4° C. (Beckman Allegra™). The supernatants were removed and stored at −20° C. The protein content of the bacterial lysate was determined by protein determination according to Bradford.
A solution of 0.15 μg/mL peptide in bacterial lysate with protein content of 1.5 mg/mL or 0.5 mg/mL was incubated at 37° C. After 0, 30, 60, 120, 240 or 360 min, 200 μL was taken from each and the proteins were precipitated with 50 μL of 15% trichloroacetic acid. Then it was incubated for 10 min at 4° C. and then centrifuged for 5 min at 13000 rpm in a Minispin desktop centrifuge. 210 μL was taken from the supernatant and neutralized with 1 mol/L sodium hydroxide solution. The intact peptide and the degradation products were analyzed by HPLC. 60 μL of 3% aqueous acetonitrile with 0.1% trifluoroacetic acid (TFA) was added to the solution and 250 μL of the mixture was injected. After chromatographic separation, the constituents were identified by MALDI-TOF-MS,
In order to investigate the stability against bacterial proteases, a lysate was prepared from an overnight culture of E. coli BL21 A1 and the peptides were incubated in it. Using Bradford protein determination, the protein concentration was adjusted to 0.5 or 1.5 mg/mL.

[4] = Half-life in 25% mouse serum, 25% aqueous mouse serum, 37° C., 75 μg/mL peptide
[5] = half-life in 25% aqueous mouse serum, 25% serum

Compound	MIC E. coli DSM 10233 [1] [µg/mL]	MIC E. coli BL21 A1 (E. coli BL21 A1; 1% TSB, 20 h at 37° C.) [µg/mL]	half-life [3] [h]	also measured
CC[C@H](C)[C@H](NC(=O)[C@@H]1C[C@@H](O)CN1C(=O)[C@H](CCCNC(=N)N)NC(=O)[C@@H]1CCCN1C(=O)[C@@H]1CCCN1C(=O)[C@H](CCCNC(=N)N)NC(=O)[C@@H]1CCCN1C(=O)[C@H](CCCNC(=N)N)NC(=O)[C@@H]1CCCN1C(=O)[C@H](CC(C)C)NC(=O)[C@H](Cc1ccc(O)cc1)NC(=O)[C@@H]1CCCN1C(=O)[C@@H]1CCCN1C(=O)[C@H](CCCCN)NC(=O)[C@H](CC(=O)O)NC(=O)[C@@H](N)C(C)C)C(=O)N[C@@H](Cc1ccc(O)cc1)C(=O)N[C@@H](CC(N)=O)C(=O)N[C@@H](CCCN)C(N)=O [SEQ ID NO. 63] (H-VDKPPYLPRPRPPR[Hyp]IYN[Orn]-NH2)	1 to 4	4 (≈ 1.74 µM)	–	MIC values against E. coli (E. coli BL21 A1): 4 µg/mL (≈ 1.74 µM); half-life [2, 4]: > 6 h; half-life [2, 5]: > 6 h; MIC M. luteus 10240 (M. luteus 10240): 8 µg/mL (≈ 3.47 µM)
CC[C@H](C)[C@H](NC(=O)[C@H](CCCN)NC(=O)[C@H](CCCNC(=N)N)NC(=O)[C@@H]1CCCN1C(=O)[C@@H]1CCCN1C(=O)[C@H](CCCNC(=N)N)NC(=O)[C@@H]1CCCN1C(=O)[C@H](CCCNC(=N)N)NC(=O)[C@@H]1CCCN1C(=O)[C@H](CC(C)C)NC(=O)[C@H](Cc1ccc(O)cc1)NC(=O)[C@@H]1CCCN1C(=O)[C@@H]1CCCN1C(=O)[C@H](CCCCN)NC(=O)[C@H](CC(=O)O)NC(=O)[C@@H](N)C(C)C)C(=O)N[C@@H](Cc1ccc(O)cc1)C(=O)N[C@@H](CC(N)=O)C(=O)N[C@@H](CCCN)C(N)=O [SEQ ID NO. 72, VDKPPYLPRPRPPROIYNO-NH2] (H-VDKPPYLPRPRPPR[Orn]IYN[Orn]-NH2)	–	–	1.92	MIC values against E. coli (E. coli BL21 A1): 8 µg/mL (≈ 3.47 µM); MIC E. coli BL21 A1 (E. coli BL21 A1; BL21, 20 h): 8 µg/mL (≈ 3.47 µM); half-life [2, 4]: > 6 h; half-life [2, 5]: > 6 h
CC[C@H](C)[C@H](NC(=O)[C@H](CCCN)NC(=O)[C@H](CCCNC(=N)N)NC(=O)[C@@H]1C[C@@H](O)CN1C(=O)[C@@H]1CCCN1C(=O)[C@H](CCCNC(=N)N)NC(=O)[C@@H]1CCCN1C(=O)[C@H](CCCNC(=N)N)NC(=O)[C@@H]1CCCN1C(=O)[C@H](CC(C)C)NC(=O)[C@H](Cc1ccc(O)cc1)NC(=O)[C@@H]1CCCN1C(=O)[C@@H]1CCCN1C(=O)[C@H](CCCCN)NC(=O)[C@H](CC(=O)O)NC(=O)[C@@H](N)C(C)C)C(=O)N[C@@H](Cc1ccc(O)cc1)C(=O)N[C@@H](CC(N)=O)C(=O)N[C@@H](CCCN)C(N)=O [SEQ ID NO. 107] (H-VDKPPYLPRPRP[Hyp]R[Orn]IYN[Orn]-NH2)	–	–	3.58	–
CC[C@H](C)[C@H](NC(=O)[C@@H]1C[C@@H](O)CN1C(=O)[C@H](CCCNC(=N)N)NC(=O)[C@@H]1C[C@@H](O)CN1C(=O)[C@@H]1CCCN1C(=O)[C@H](CCCNC(=N)N)NC(=O)[C@@H]1CCCN1C(=O)[C@H](CCCNC(=N)N)NC(=O)[C@@H]1CCCN1C(=O)[C@H](CC(C)C)NC(=O)[C@H](Cc1ccc(O)cc1)NC(=O)[C@@H]1CCCN1C(=O)[C@@H]1CCCN1C(=O)[C@H](CCCCN)NC(=O)[C@H](CC(=O)O)NC(=O)[C@@H](N)C(C)C)C(=O)N[C@@H](Cc1ccc(O)cc1)C(=O)N[C@@H](CC(N)=O)C(=O)N[C@@H](CCCN)C(N)=O [SEQ ID NO. 108] (H-VDKPPYLPRPRP[Hyp]R[Hyp]IYN[Orn]-NH2)	1 to 4	2 (≈ 0.862 µM)	–	–
CC(C)C[C@H](NC(=O)[C@H](Cc1ccc(O)cc1)NC(=O)[C@@H]1CCCN1C(=O)[C@@H]1CCCN1C(=O)[C@H](CCCCN)NC(=O)[C@H](CC(=O)O)NC(=O)[C@@H](N)C(C)C)C(=O)N1CCC[C@H]1C(=O)N[C@@H](CCCNC(=N)N)C(=O)N1CCC[C@H]1C(=O)N[C@@H](CCCNC(=N)N)C(=O)N1CCC[C@H]1C(=O)N1CCC[C@H]1C(=O)N[C@@H](CCCNC(=N)N)C(=O)N[C@@H](CCCN)C(=O)N[C@H](C(=O)N[C@@H](Cc1ccc(O)cc1)C(=O)N[C@@H](CC(N)=O)C(=O)N[C@@H](CCCN)C(N)=O)C(C)(C)C [SEQ ID NO. 109, VDKPPYLPRPRPPRO-Tle-YNO-NH2] (H-VDKPPYLPRPRPPR[Orn][Tle]YN[Orn]-NH2)	–	–	> 4	–
CC(C)C[C@H](NC(=O)[C@H](Cc1ccc(O)cc1)NC(=O)[C@@H]1CCCN1C(=O)[C@@H]1CCCN1C(=O)[C@H](CCCCN)NC(=O)[C@H](CC(=O)O)NC(=O)[C@@H](N)C(C)C)C(=O)N1CCC[C@H]1C(=O)N[C@@H](CCCNC(=N)N)C(=O)N1CCC[C@H]1C(=O)N[C@@H](CCCNC(=N)N)C(=O)N1CCC[C@H]1C(=O)N1C[C@H](O)C[C@H]1C(=O)N[C@@H](CCCNC(=N)N)C(=O)N1C[C@H](O)C[C@H]1C(=O)N[C@H](C(=O)N[C@@H](Cc1ccc(O)cc1)C(=O)N[C@@H](CC(N)=O)C(=O)N[C@@H](CCCN)C(N)=O)C(C)(C)C [SEQ ID NO. 110] (H-VDKPPYLPRPRP[Hyp]R[Hyp][Tle]YN[Orn]-NH2)	–	2 (≈ 0.862 µM)	> 4	–
CC[C@H](C)[C@H](NC(=O)[C@H](Cc1ccc(O)cc1)NC(=O)[C@H](CC(N)=O)NC(=O)[C@@H](N)CCCN)C(=O)N[C@@H](CCCN)C(=O)N[C@@H](CCCNC(=N)N)C(=O)N1CCC[C@H]1C(=O)N1CCC[C@H]1C(=O)N[C@@H](CCCNC(=N)N)C(=O)N1CCC[C@H]1C(=O)N[C@@H](CCCNC(=N)N)C(=O)N1CCC[C@H]1C(=O)N[C@@H](CC(C)C)C(=O)N[C@@H](Cc1ccc(O)cc1)C(=O)N1CCC[C@H]1C(=O)N1CCC[C@H]1C(=O)N[C@@H](CCCCN)C(=O)N[C@@H](CC(=O)O)C(=O)N[C@H](C(N)=O)C(C)C [SEQ ID NO. 113, ONYIORPPRPRPLYPPKDV-NH2] (H-[Orn]NYI[Orn]RPPRPRPLYPPKDV-NH2)	1 to 4	–	–	–
CC[C@H](C)[C@H](NC(=O)[C@H](Cc1ccc(O)cc1)NC(=O)[C@H](CC(N)=O)NC(=O)[C@@H](N)CCCN)C(=O)N1C[C@H](O)C[C@H]1C(=O)N[C@@H](CCCNC(=N)N)C(=O)N1CCC[C@H]1C(=O)N1CCC[C@H]1C(=O)N[C@@H](CCCNC(=N)N)C(=O)N1CCC[C@H]1C(=O)N[C@@H](CCCNC(=N)N)C(=O)N1CCC[C@H]1C(=O)N[C@@H](CC(C)C)C(=O)N[C@@H](Cc1ccc(O)cc1)C(=O)N1CCC[C@H]1C(=O)N1CCC[C@H]1C(=O)N[C@@H](CCCCN)C(=O)N[C@@H](CC(=O)O)C(=O)N[C@H](C(N)=O)C(C)C [SEQ ID NO. 114] (H-[Orn]NYI[Hyp]RPPRPRPLYPPKDV-NH2)	1 to 4	–	–	–
CC(C)C[C@H](NC(=O)[C@H](CCCN)NC(=O)[C@H](CCCNC(=N)N)NC(=O)[C@@H]1CCCN1C(=O)[C@@H]1CCCN1C(=O)[C@H](CCCNC(=N)N)NC(=O)[C@@H]1CCCN1C(=O)[C@H](CCCNC(=N)N)NC(=O)[C@@H]1CCCN1C(=O)[C@H](CC(C)C)NC(=O)[C@H](Cc1ccc(O)cc1)NC(=O)[C@@H]1CCCN1C(=O)[C@@H]1CCCN1C(=O)[C@H](CCCCN)NC(=O)[C@H](CC(=O)O)NC(=O)[C@@H](N)C(C)C)C(=O)N[C@@H](Cc1ccc(O)cc1)C(=O)N[C@@H](CC(N)=O)C(=O)N[C@@H](CCCN)C(N)=O [compound 73] (H-VDKPPYLPRPRPPR[Orn]LYN[Orn]-NH2)	–	–	1.5	MIC E. coli BL21 A1 (E. coli BL21 A1; BL21, 20 h): 8 µg/mL (≈ 3.47 µM); MIC M. luteus 10240 (M. luteus 10240): 16 µg/mL (≈ 6.94 µM)
